The values that follow come from patent publication US10988474B2, “Compounds acting at multiple prostaglandin receptors giving a general anti-inflammatory response” (ALLERGAN, INC., priority 2011, dated 2021).

For orientation: Kb means the equilibrium dissociation constant of an antagonist, usually derived from a functional assay.

Each structure is given as a SMILES string.

Assay type in all cases: cell-based
In assay [1] the target is T1, human prostanoid EP4 receptor (Homo sapiens, UniProt P35408).
T1 construct: expressed in transfected cells
As to the kind of experiment: FLIPR Ca2+ signaling PG antagonist assay, EP4 stable cell line. As to conditions: HEK-293 EBNA cells, human recombinant EP4 with chimeric Gqs; standard agonist PGE2. The method, then: (§1) The above compounds were tested for PG antagonist activity as follows using human recombinant prostanoid receptor (DP1, EP1-4, FP, IP and TP) stable cell lines: In order to measure the response of Gs and Gi coupled prostanoid receptors as a Ca^2+ signal, chimeric G protein cDNAs were used. Stable cell lines over-expressing human prostanoid DP1, EP1-4, FP, IP, and TP receptors were established as follows:
(§2) Briefly, human prostanoid DP1, EP2, and EP4 receptor cDNAs were co-transfected with chimeric Gqs cDNA containing a haemagglutanin (HA) epitope; human prostanoid EP3 receptors were co-transfected with chimeric Gqi-HA; human EP1, FP, IP, and TP receptor cDNAs were expressed with no exogenous G-proteins. Gqs and Gqi chimeric cDNAs (Molecular Devices, Sunnyvale, Calif., U.S.A.), as well as cDNAs of prostanoid receptors, were cloned into a pCEP4 vector with a hygromycin B selection marker. Transfection into HEK-293 EBNA (Epstein-Barr virus nuclear antigen) cells was achieved by the FuGENE 6 transfection Reagent (Roche Applied Science, Indianapolis, Ind., USA). Stable transfectants were selected according to hygromycin resistance. Because Gqs and Gqi contained an HA epitope, G-protein expression was detected by Western blotting analysis using anti-mouse HA monoclonal antibody and horseradish peroxidase (HRP)-conjugated secondary antibody, while functional expression of prostanoid receptors was detected by FLIPR screening (Matias et al., 2004). These stable cell lines were validated using previously published antagonists at 10 μM against serial dilutions of standard agonists by FLIPR functional assays for Ca^2+ Signaling (as described below).
(§3) Ca^2+ signaling studies were performed using a FLIPR TETRA system (Molecular Devices, Sunnyvale, Calif., USA) in the 384-format. This is a high-throughput instrument for cell-based assays to monitor Ca^2+ signaling associated with GPCRs and ion channels. Cells were seeded at a density of 5×10^4 cells/well in BioCoat poly-D-lysine coated, black wall, clear bottom 384-well plates (BD Biosciences, Franklin lakes, NJ, USA) and allowed to attach overnight in an incubator at 37° C. The cells were then washed twice with HBSS-HEPES buffer (Hanks' balanced salt solution without bicarbonate and phenol red, 20 mM HEPES, pH 7.4) using an ELx405 Select CW Microplate Washer (BioTek, Winooski, Vt., USA). After 60 min of dye-loading in the dark using the Ca^2+-sensitive dye Fluo-4AM (Invitrogen, Carlsbad, Calif., USA), at a final concentration of 2×10^−6M, the plates were washed 4 times with HBSS-HEPES buffer to remove excess dye and leaving 50 μl of buffer in each well. The plates were then placed in the FLIPR TETRA instrument and allowed to equilibrate at 37° C. Compounds were added in a 25 μl volume to each well to give final concentrations of 0.1 μM, 0.3 μM, 1 μM, 3 μM, 10 μM, and 30 μM; or 0.067 μM, 0.1 μM, 0.2 μM, 0.3 μM, 0.67 μM, and 1 μM for cells over-expressing TP receptors. After 4.5 minutes, a 7-point serial dilution of the standard agonist for the corresponding receptor, in a 25 μl volume was injected at the final concentrations from 10^−11M to 10^−5M in 10-fold serial dilution increments for cells expressing human recombinant DP1, EP1, EP2, EP3, EP4, FP, and IP receptors. The dose range for the standard agonist for human recombinant TP receptors was from 10^−12M to 10^−6M. HBSS-HEPES buffer was used as the negative control for the standard agonists. Cells were excited with LED (light emitting diode) excitation at 470-495 nm and emission was measured through an emission filter at 515-575 nm. Assay plates were read for 3.5 minutes using the FLIPR^TETRA. The peak increase in fluorescence intensity was recorded for each well. On each plate, negative controls, dose response of positive controls, and co-treatments of antagonist-agonist for each dose were in triplicates. Standard agonists were as follows: DP=BW 245C, EP1-EP4=PGE2, FP=17-phenyl-PGF2α, IP=Cicaprost, and TP=U-46619. […]

In assay [2] the target is T2, human prostanoid EP3 receptor (Homo sapiens, UniProt P43115).
T2 construct: expressed in transfected cells
T2 sequence (P43115 1-390): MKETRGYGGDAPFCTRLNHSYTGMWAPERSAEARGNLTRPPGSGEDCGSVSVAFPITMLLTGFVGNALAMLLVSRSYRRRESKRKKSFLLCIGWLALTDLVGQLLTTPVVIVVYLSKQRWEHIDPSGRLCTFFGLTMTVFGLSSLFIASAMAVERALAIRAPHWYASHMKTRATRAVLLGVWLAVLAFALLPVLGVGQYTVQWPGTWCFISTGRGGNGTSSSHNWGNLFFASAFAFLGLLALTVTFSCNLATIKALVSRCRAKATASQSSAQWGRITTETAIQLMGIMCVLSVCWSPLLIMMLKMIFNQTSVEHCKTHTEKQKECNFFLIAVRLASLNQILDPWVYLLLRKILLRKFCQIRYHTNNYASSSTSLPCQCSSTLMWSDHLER
As to the kind of experiment: FLIPR Ca2+ signaling PG antagonist assay, EP3 stable cell line. The following applies: HEK-293 EBNA cells, human recombinant EP3 with chimeric Gqi; standard agonist PGE2. The method, then: as §1, §2, §3

Assay [3] has as its target T3, human prostanoid EP1 receptor (Homo sapiens, UniProt P34995).
T3 construct: expressed in transfected cells
T3 sequence (P34995 1-402): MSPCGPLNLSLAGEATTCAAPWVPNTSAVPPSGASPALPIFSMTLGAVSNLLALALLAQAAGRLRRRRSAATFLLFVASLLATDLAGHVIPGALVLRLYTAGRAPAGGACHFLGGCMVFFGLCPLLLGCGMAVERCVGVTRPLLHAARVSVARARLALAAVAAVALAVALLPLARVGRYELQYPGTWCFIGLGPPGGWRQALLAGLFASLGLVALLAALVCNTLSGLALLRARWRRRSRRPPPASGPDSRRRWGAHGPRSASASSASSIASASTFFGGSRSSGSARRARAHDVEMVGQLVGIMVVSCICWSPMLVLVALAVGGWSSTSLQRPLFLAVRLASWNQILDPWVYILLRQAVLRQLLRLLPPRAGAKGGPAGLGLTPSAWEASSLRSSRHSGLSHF
As to the kind of experiment: FLIPR Ca2+ signaling PG antagonist assay, EP1 stable cell line. As to conditions: HEK-293 EBNA cells, human recombinant EP1, no exogenous G-protein; standard agonist PGE2. Here is the method: as §1, §2, §3

T1 sequence (P35408 whole entry): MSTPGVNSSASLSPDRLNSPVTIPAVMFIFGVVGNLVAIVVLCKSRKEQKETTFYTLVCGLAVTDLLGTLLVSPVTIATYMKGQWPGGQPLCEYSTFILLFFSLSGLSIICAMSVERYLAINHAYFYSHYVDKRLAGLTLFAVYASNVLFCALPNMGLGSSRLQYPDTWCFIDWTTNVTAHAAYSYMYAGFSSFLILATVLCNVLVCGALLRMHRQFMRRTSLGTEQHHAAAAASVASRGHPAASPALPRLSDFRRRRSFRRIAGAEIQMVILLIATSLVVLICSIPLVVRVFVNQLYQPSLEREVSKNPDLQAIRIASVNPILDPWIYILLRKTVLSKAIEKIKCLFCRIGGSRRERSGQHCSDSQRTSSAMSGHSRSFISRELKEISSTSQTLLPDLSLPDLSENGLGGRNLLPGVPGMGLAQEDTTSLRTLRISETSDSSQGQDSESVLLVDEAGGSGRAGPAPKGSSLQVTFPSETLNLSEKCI

In the case of `Cc1nn(Cc2cc(OC(F)(F)F)ccc2OCC(C)C)c2ccc(C(=O)O)cc12` [Example 22, 1-(2-Isobutoxy-5-Trifluoromethoxy-Benzyl)-3-Methyl-1H-Indazole-5-Carboxylic Acid], the Kb in assay [1] is 350 nM; in assay [2], at least 10000 nM; in assay [3] it was 16 nM.

Consider `O=C(O)c1ccc2c(cnn2Cc2cc(Br)ccc2OCC2CCCC2)c1` [Example 14, 1-(5-Bromo-2-Cyclopentylmethoxy-Benzyl)-1H-Indazole-5-Carboxylic Acid], for which the results for the Kb in assay [1], in assay [2] and in assay [3] were 15 nM, 1500 nM and 20 nM, respectively.

Turning to `CCC(CC)COc1ccc(Cl)cc1Cn1ncc2cc(C(=O)O)ccc21` [Example 2, 1-[5-Chloro-2-(2-Ethyl-Butoxy)-Benzyl]-1H-Indazole-5-Carboxylic ACID], the Kb in assay [1] was 20 nM; in assay [2], 1100 nM; in assay [3] it was 140 nM.

As to `CCC(CC)COc1ccc(Br)cc1Cn1ccc2cc(C(=O)O)ccc21` [Example 69, 1-[5-Bromo-2-(2-Ethyl-Butoxy)-Benzyl]-1H-Indole-5-Carboxylic Acid], the Kb stood at 130 nM in assay [1], 7900 nM in assay [2] and 250 nM in assay [3].

Regarding `Cc1nn(Cc2cc(C(F)(F)F)ccc2OCC(C)C)c2ccc(C(=O)O)cc12` [Example 25, 1-(2-Isobutoxy-5-Trifluoromethyl-Benzyl)-3-Methyl-1H-Indazole-5-Carboxylic Acid], the values for the Kb in assay [1], in assay [2] and in assay [3] were 160 nM, 4500 nM and 27 nM, respectively.

As for `CC(C)COc1ccc(Br)cc1Cn1cnc2cc(C(=O)O)ccc21` [Example 79, 1-(5-Bromo-2-Isobutoxy-Benzyl)-1H-Benzoimidazole-5-Carboxylic Acid], the Kb in assay [1] is 80 nM; in assay [2], 8700 nM; in assay [3], 11 nM.

Regarding `O=C(O)c1ccc2c(cnn2Cc2cc(Cl)ccc2OCC2CCCC2)c1` [Example 10, 1-(5-Chloro-2-Cyclopentylmethoxy-Benzyl)-1H-Indazole-5-Carboxylic Acid], the Kb in assay [1] came out at 20 nM; in assay [2], 1100 nM; in assay [3], 50 nM.

As for `CCC(CC)COc1ccc(Cl)cc1Cn1cc2c(C(=O)O)cccc2n1` [Example 39, 2-[5-Chloro-2-(2-Ethyl-Butoxy)-Benzyl]-2H-Indazole-4-Carboxylic Acid], the values for the Kb in assay [1], in assay [2] and in assay [3] were 1600 nM, 5500 nM and 1200 nM, respectively.

For the compound `CC(C)COc1cc(Cl)c(Cl)cc1Cn1ncc2cc(C(=O)O)ccc21` [Example 49, 1-(4,5-Dichloro-2-Isobutoxy-Benzyl)-1H-Indazole-5-Carboxylic Acid], the Kb in assay [1] was 50 nM; in assay [2], at least 10000 nM; in assay [3], 540 nM.

Take `O=C(O)c1cccc2c1cnn2Cc1cc(Cl)ccc1OCC1CC1` [Example 34, 1-(5-Chloro-2-Cyclopropylmethoxy-Benzyl)-1H-Indazole-4-Carboxylic Acid]: the Kb in assay [1] is at least 10000 nM; in assay [2], at least 10000 nM; in assay [3], 70 nM.

For `CCC(CC)COc1ccc(Cl)cc1Cn1ncc2cc(C(=O)O)ncc21` [Example 63, 1-[5-Chloro-2-(2-Ethyl-Butoxy)-Benzyl]-1H-Pyrazolo[3,4-C]Pyridine-5-Carboxylic Acid], the Kb in assay [1] is 2500 nM; in assay [2] it was 7400 nM; in assay [3], 1200 nM.

For `CC(C)COc1ccc(Br)cc1Cn1ncc2c(C(=O)O)cccc21` [Example 7, 1-(5-Bromo-2-Isobutoxy-Benzyl)-1H-Indazole-4-Carboxylic Acid], the Kb in assay [1] is 1800 nM; in assay [2] it was at least 10000 nM; in assay [3], 45 nM.

For `Cc1nn(Cc2cc(Br)ccc2OCC(C)C)c2ccc(C(=O)O)cc12` [Example 21, 1-(5-Bromo-2-Isobutoxy-Benzyl)-3-Methyl-1H-Indazole-5-Carboxylic Acid], the results for the Kb in assay [1], in assay [2] and in assay [3] were 70 nM, 2200 nM and 14 nM, respectively.

In the case of `Cc1nn(Cc2cc(Cl)ccc2OCC(C)C)c2ccc(C(=O)O)cc12` [Example 24, 1-(5-Chloro-2-Isobutoxy-Benzyl)-3-Methyl-1H-Indazole-5-Carboxylic Acid], the antagonist dissociation constant (Kb) came to 150 nM in assay [1], 2440 nM in assay [2] and 20 nM in assay [3].

In the case of `O=C(O)c1ccc2c(cnn2Cc2cc(C(F)(F)F)ccc2OCc2ccc(Cl)cc2)c1` [Example 32, 1-[2-(4-Chloro-Benzyloxy)-5-Trifluoromethyl-Benzyl]-1H-Indazole-5-Carboxylic Acid], the Kb in assay [1] was 5000 nM; in assay [2], at least 10000 nM; in assay [3], 210 nM.

Regarding `CC(C)COc1ccc(Br)cc1Cn1ncc2ccc(C(=O)O)cc21` [Example 42, 1-(5-Bromo-2-Isobutoxy-Benzyl)-1H-Indazole-6-Carboxylic Acid], the Kb in assay [1] is 1800 nM; in assay [2], 1900 nM; in assay [3] it was 24 nM.

For `CC(C)COc1ccc(Br)cc1Cn1ccc2cc(C(=O)O)cnc21` [Example 72, 1-(5-Bromo-2-Isobutoxy-Benzyl)-1H-Pyrrolo[2,3-B]Pyridine-5-Carboxylic Acid], the Kb in assay [1] is 220 nM; in assay [2], at least 10000 nM; in assay [3], 10 nM.

In the case of `O=C(O)c1ccc2c(cnn2Cc2cc(Br)ccc2OCc2ccc(Cl)cc2)c1` [Example 13, 1-[5-Bromo-2-(4-Chloro-Benzyloxy)-Benzyl]-1H-Indazole-5-Carboxylic Acid], the results for the Kb in assay [1], in assay [2] and in assay [3] were 2700 nM, 8500 nM and 50 nM, respectively.

Regarding `CCC(CC)COc1ccc(Cl)cc1Cn1ncc2c(C(=O)O)cccc21` [Example 38, 1-[5-Chloro-2-(2-Ethyl-Butoxy)-Benzyl]-1H-Indazole-4-Carboxylic Acid], the Kb came out at 400 nM in assay [1], 1700 nM in assay [2] and 70 nM in assay [3].
